Reference: patent US6365593B2, “Methylxanthines in the diagnosis and treatment of autistic disorder” (Repligen Corporation, priority 2000, dated 2002)
Entries after “also recorded” stand apart in the source; their conditions may differ.

Columns and labels:
[1] = tested on: 7-MX level in urine; test: Double blind study: urinary 7-MX in autistic children after secretin or placebo; type: in vivo, human; settings: groups 0 and 1, basal vs one week after secretin
Description: The urine samples of a double blind study on the effects of secretin on autistic children were available for further investigation on the changes of 7-MX after secretin treatment. Participants were divided into two groups. One group received secretin first, then placebo, and the other group received placebo first, then secretin. Three samples were collected for each subject: (i) basal urine, (ii) one week after secretin, (iii) one week after placebo. The changes of 7-MX level are shown in FIG. 8 (changes of 7-MX levels in double blind group “0”) and FIG. 9 (changes of 7-MX in double blind group “1”) for the two groups of patients. […] Only one subject in group 1 was an exception, where the basal 7-MX level was 10 times higher than the average.

[2] = tested on: 7-MX levels in the first morning urine; test: 7-MX levels in first morning urine of autistic subjects after secretin infusion (time course); type: in vivo, human
Procedure: Urine samples from individuals, e.g., children, suspected of having autistic disorder are collected in 50 ml polypropylene centrifuge tubes and stored at a temperature below freezing, e.g., at −20° C. The samples are later thawed and centrifuged before pre-purification by solid phase extraction using e.g., SEP-PAK™ columns. The following is a suitable protocol for SEP-PAK™ extraction of one urine sample:
Suitable HPLC conditions to detect and analyze the methylxanthines and xanthines in a urine sample are as follows:
Samples are normalized for urinary output and variations in dilution using a standard creatinine assay. A portion of each sample is assayed to determine the creatinine content. Each sample is then diluted with water to achieve a standard creatinine concentration of […] in 100 μl of the sample.
Once the urine samples are properly pretreated, the level of methylxanthine, e.g., 7-MX, or xanthine is determined. […]
Samples of urine from autistic and non-autistic subjects were collected and analyzed for the presence of various metabolites before and after secretin treatment. Urine samples were analyzed by HPLC with a 4.5×100 mm C18 column detected at 215 nm and 280 nm. […]
The 7-MX levels in the first morning urine of autistic subjects after secretin treatment were monitored. […]

[3] = tested on: symptoms of autistic disorder; settings: individuals diagnosed with autistic disorder; cited from earlier work

Q: Which “change of urinary 7-MX level one week after secretin” value [1] does the source give for “secretin: a hormone shown to improve symptoms of autistic disorder; stimulates secretion of pancreatic bicarbonate fluid” here?
A: Its value is “increased or stayed at the same level, but did not decrease; also recorded: increased the excretion of 7-MX and other methylxanthines”.

Q: What about the “change of 7-MX level (HPLC peak RT5.5) in urine after secretin treatment” value ([2]; autistic children, first morning urine, after secretin infusion) of the same substance?
A: Its value is “increase in size after secretin treatment in some children; also recorded: increases during the first week after secretin infusion and then decreases; also recorded: increased, and then decreased after about one week”.

Q: And the “dose dependence of urinary 7-MX level after secretin” value ([2]; one autistic child, first treatment about 4 μg, second about 15 μg secretin)?
A: The value was “a higher dose of secretin would lead to a higher level of 7-MX in the urine”.

Q: And the “effect on symptoms of autistic disorder” value [3]?
A: The value was “improve symptoms”.
